Experimental data: patent publication US10160972B2, “Methods and materials for treating cancer” (Mayo Foundation for Medical Education and Research, priority 2012, dated 2018)
pIC50: −log10 of the molar value.

Legend:
[1] = system: Caki1, A498, Caki2, and ACHN ccRCC cell lines; assay: OA-BSA rescue of growth inhibition; type: cell-based, human; conditions: IC50 doses of A939572 + OA-BSA vs DMSO+BSA control, all four cell lines
Protocol: Drug stocks were prepared in DMSO. Monotherapeutic treatment identified drug dose-response. […] Temsirolimus dosing was performed as described in the text.

[2] = system: Caki1, A498, Caki2, and ACHN ccRCC cell lines; assay: PARP cleavage western blot (apoptosis); type: cell-based, human
Protocol: (§1) Protein extracts, electrophoresis, and membrane transfers were prepared as previously described (Copland J A, Marlow L A, Kurakata S, Fujiwara K, Wong A K, Kreinest P A, et al. Novel highaffinity PPARgamma agonist alone and in combination with paclitaxel inhibits human anaplastic thyroid carcinoma tumor growth via p21WAF1/CIP1. Oncogene. 2006; 25:2304-17). Primary antibodies included SCD1, PARP, DDIT3, BiP, sXBP1, and β-actin. A Supersignal chemiluminescent kit was used to perform detection.

[3] = system: Caki1, A498, Caki2, and ACHN ccRCC cells; assay: Gene array expression analysis; type: cell-based, human; conditions: 75 nM, 24 hours, vs DMSO control
Protocol: Gene array expression analysis was performed using Affymetrix Human Genome U133 Plus 2.0 Array chip. The details of the data processing and methodology were previously described in (Tun H W, Marlow L A, von Roemeling C A, Cooper S J, Kreinest P, Wu K, et al. Pathway signature and cellular differentiation in clear cell renal cell carcinoma. PLoS One. 2010; 5:e10696). Gene expression data was deposited at Gene Expression Omnibus (Accession#GSE41485). Pathway analysis was performed using IPA (Ingenuity® Systems).

Caki1 and A498 cells = assay: Western blot of ER stress markers; type: cell-based, human; conditions: 75 nM drug or shSCD780 knockdown, 48 hours
Protocol: as §1

A498 ccRCC xenografts [4] = assay: Western blot of CHOP in xenograft tumor tissue; type: in vivo, athymic nude (nu/nu) mice; conditions: normalized to β-actin, tumor tissue samples
Protocol: as §1

A375 melanoma cells = assay: Cell number growth inhibition assay; type: cell-based, human
Protocol: (§2) A number of cancer cell lines were tested to determine whether SCD1 protein expression correlates with growth inhibition of an SCD1 inhibitor in human cancer cell lines.
(§3) Cells (20,000/ml) were plated in 12 well cell culture plates, allowed to attach and treated with the indicated dose of SCD1 inhibitor ([…]) or standard of care (gemcitabine). Cell number was counted using a Coulter Counter. As show in FIG. 7, the data are expressed as percent of DMSO control. Each value represents triplicates. Western analysis for SCD1 protein expression was performed on each cell line with beta-actin as the loading control.
(§4) The following cell lines were studied using a similar method as that described above.

[5] = system: A549 nonsmall cell lung cancer cells; assay: Cell number growth inhibition assay; type: cell-based, human
Protocol: as §2, §3, §4

[6] = system: BCJ4T bladder cancer cells; assay: Cell number growth inhibition assay; type: cell-based, human
Protocol: as §2, §3, §4

Caco2 colon cancer cells = assay: Cell number growth inhibition assay; type: cell-based, human
Protocol: as §2, §3, §4

Calu-1 lung cancer cells = assay: Cell number growth inhibition assay; type: cell-based, human
Protocol: as §2, §3, §4

[7] = system: DU-145 prostate cancer cells; assay: Cell number growth inhibition assay; type: cell-based, human
Protocol: as §2, §3, §4

[8] = system: HOV TAX2 ovarian cancer cells; assay: Cell number growth inhibition assay; type: cell-based, human
Protocol: as §2, §3, §4

[9] = system: HT1376 bladder cancer cells; assay: Cell number growth inhibition assay; type: cell-based, human
Protocol: as §2, §3, §4

HT29 colon cancer cells = assay: Cell number growth inhibition assay; type: cell-based, human
Protocol: as §2, §3, §4

[10] = system: KTC3 thyroid cancer cells; assay: Cell number growth inhibition assay; type: cell-based, human
Protocol: as §2, §3, §4

[11] = system: LNCAP prostate cancer cells; assay: Cell number growth inhibition assay; type: cell-based, human
Protocol: as §2, §3, §4

[12] = system: MCF-7 (ER+/PR+) breast cancer cells; assay: Cell number growth inhibition assay; type: cell-based, human
Protocol: as §2, §3, §4

[13] = system: MDA-231 (triple negative) breast cancer cells; assay: Cell number growth inhibition assay; type: cell-based, human
Protocol: as §2, §3, §4

Mela 11 melanoma cells = assay: Cell number growth inhibition assay; type: cell-based, human
Protocol: as §2, §3, §4

[14] = system: OVCA420 ovarian cancer cells; assay: Cell number growth inhibition assay; type: cell-based, human
Protocol: as §2, §3, §4

[15] = system: SNU449 liver cancer cells; assay: Cell number growth inhibition assay; type: cell-based, human; conditions: SNU449
Protocol: as §2, §3, §4

T24 bladder cancer cells = assay: Cell number growth inhibition assay; type: cell-based, human
Protocol: as §2, §3, §4

[16] = system: T47D (PR+) breast cancer cells; assay: Cell number growth inhibition assay; type: cell-based, human
Protocol: as §2, §3, §4

A498 ccRCC xenografts [17] = assay: IHC analysis of resected xenograft tumors
Protocol: The TMAs were mounted on slides from paraffin-embedded blocks according to IHC procedure and samples were blocked with Diluent that contained Background Reducing Components (Dakocytomation) for 30 min and then probed for SCD1, Ki67, Caspase-3, CD31, phospho-mTOR, DDIT3, and XBP1. […] Stain scoring was done using algorithms generated with Imagescope software created by a histologist. H-scores were calculated based upon signal intensity (0-3+) using the formula: [(1+%×1)+(2+%×2)+(3+%×3)], intensity (I)-scores were calculated by dividing signal intensity by area, and nuclear (N)-scores were calculated by dividing % positive nuclei by total nuclei examined per area. Cases where insufficient tumor tissue presented were excluded from the study. 20× images were obtained using Scanscope XT and Imagescope software.
IHC analysis of tumors resected from each treatment group was analyzed for proliferation, angiogenesis, and cell death (FIG. 6B).

[18] = system: ATF6 luciferase reporter in Caki1 cells
Protocol: For transient transfection, Caki1 and A498 cells were transfected using Lipofectamine 2000. Cells treated with DMSO vs. A939572 or infected using shSCD780 lentiviral constructs vs. NT control were harvested after 48 hrs using Promega's Dual Luciferase assay kit per the manufacturer's protocol and luciferase activity was measured using a Veritas Luminometer; reported as relative luminescence.
Caki1 and A498 cells transfected with an ATF6 luciferase reporter (p5xATF6-GL3) were treated with a 75 nM dose of A939572 or were infected with shSCD780. Resulting luminescence was measured after 48 hours.

[19] = read-out: estimated IC50 concentration, growth inhibition

**Q.** `CNC(=O)c1cccc(NC(=O)N2CCC(Oc3ccccc3Cl)CC2)c1` [A939572] was tested. Which “growth inhibition with addition of OA-BSA” value [1] did it give?
**A.** The value was “prevented A939572 mediated growth inhibition”.

**Q.** And the “apoptosis by PARP cleavage with addition of OA-BSA” value ([2]; A939572 + OA-BSA)?
**A.** Its value is “blocked apoptosis”.

**Q.** And the “apoptosis by PARP cleavage” value ([2]; western blot, all four cell lines)?
**A.** The value was “induced apoptosis”.

**Q.** What about the “expression of ER stress response genes associated with UPR” value [3] of the same compound?
**A.** The value was “increased expression of ER stress response genes”.

**Q.** And the “protein expression of ER stress markers BiP, CHOP, spliced-XBP1” value (Caki1 and A498 cells)?
**A.** Its value is “amplified expression”.

**Q.** What about the “CHOP expression (ER stress)” value (A498 ccRCC xenografts [4]) of the same compound?
**A.** Its value is “Increased expression of CHOP”.

**Q.** What about the growth inhibition (A375 melanoma cells) of the same compound?
**A.** Its growth inhibition is “growth inhibited in a dose dependent fashion”.

**Q.** What about the pIC50 (A375 melanoma cells; [19]) of the same compound?
**A.** The pIC50 was roughly 7.30.

**Q.** And the growth inhibition [5]?
**A.** Its growth inhibition is “growth inhibited in a dose dependent fashion”.

**Q.** What about the growth inhibition [6] of the same compound?
**A.** The growth inhibition was “not growth inhibited”.

**Q.** What about the growth inhibition (Caco2 colon cancer cells) of the same compound?
**A.** The growth inhibition was “growth inhibited in a dose dependent fashion”.

**Q.** What about the growth inhibition (Calu-1 lung cancer cells) of the same compound?
**A.** The growth inhibition was “not growth inhibited”.

**Q.** What about the growth inhibition [7] of the same compound?
**A.** The growth inhibition was “growth inhibited in a dose dependent fashion”.

**Q.** What about the growth inhibition [8] of the same compound?
**A.** The growth inhibition was “growth inhibited in a dose dependent fashion”.

**Q.** What about the growth inhibition [9] of the same compound?
**A.** The growth inhibition was “growth inhibited in a dose dependent fashion”.

**Q.** What about the growth inhibition (HT29 colon cancer cells) of the same compound?
**A.** The growth inhibition was “growth inhibited in a dose dependent fashion”.

**Q.** And the growth inhibition [10]?
**A.** Its growth inhibition is “growth inhibited in a dose dependent fashion”.

**Q.** And the growth inhibition [11]?
**A.** Its growth inhibition is “growth inhibited in a dose dependent fashion”.

**Q.** What about the growth inhibition [12] of the same compound?
**A.** The growth inhibition was “growth inhibited in a dose dependent fashion”.

**Q.** And the growth inhibition [13]?
**A.** The growth inhibition was “growth inhibited in a dose dependent fashion”.

**Q.** And the growth inhibition (Mela 11 melanoma cells)?
**A.** The growth inhibition was “not growth inhibited”.

**Q.** And the growth inhibition [14]?
**A.** The growth inhibition was “growth inhibited in a dose dependent fashion”.

**Q.** And the growth inhibition [15]?
**A.** The growth inhibition was “growth inhibited in a dose dependent fashion”.

**Q.** And the pIC50 [15, 19]?
**A.** Its pIC50 is roughly 7.00.

**Q.** And the growth inhibition (T24 bladder cancer cells)?
**A.** The growth inhibition was “growth inhibited in a dose dependent fashion”.

**Q.** What about the growth inhibition [16] of the same compound?
**A.** The growth inhibition was “growth inhibited in a dose dependent fashion”.

**Q.** What about the “cell death, cleaved caspase-3 (CC3)” value (A498 ccRCC xenografts [17]; vs placebo / other groups) of the same compound?
**A.** The value was “moderate increase”.

**Q.** And the “proliferation, percent positivity of nuclear Ki67 staining” value (A498 ccRCC xenografts [17]; vs placebo control)?
**A.** The value was “decreased proliferation”.

**Q.** And the “reporter activation with addition of OA-BSA” value ([18]; Caki1, + OA-BSA)?
**A.** The value was “significantly reduced reporter activation”.

**Q.** And the “luciferase activity, fold change induction” value ([18]; Caki1, +BSA, 75 nM A939572 or shSCD780, 48 hours, vs DMSO and NT controls)?
**A.** Its value is 1.6 fold change.
